Measurements as given in patent publication US20110177054A1, “USE OF ENDO-LYSOSOMAL SYSTEM AND SECRETED VESICLES (EXOSOME-LIKE) IN TREATMENTS AND DIAGNOSTICS BASED ON SMALL RNA AND EXPERIMENTAL STUDY OF SMALL RNA” (priority 2008, published 2011).

What was measured:
[1] = system: miR-K12-4 target reporter; test: Intercellular transfer of miR-K12-4 by exosomes (psiCHECK dual luciferase reporter in target cells); type: cell-based; settings: BIG2 siRNA delivered to exosome producing cells simultaneously with miR-K12-4 or miR-206 plasmids
Method: FIG. 7: exosomes transfer active siRNA and miRNA to target cells in a BIG2-dependent manner. (A) Exosomes purified from cells transfected with GFP siRNA or control siRNA were incubated with cells transfected with GFP. GFP expression was examined 8 hours or 24 hours later by flow cytometry. GFP expression was calculated as 1-(GFP expression GFP siRNA exosomes/GFP expression control siRNA exosomes)×100. (n=3, p<0.05, paired t-test). (B) Exosomes purified from cells transfected with miR-206 or miR-K12-4 were incubated with cells transfected with a target site for miR-K12-4 inserted into the psiCHECK dual luciferase plasmid. Activity of luciferases was measured 8 hours later. Inhibition of Firefly luciferase expression was calculated as: 1-(Firefly luciferase/Renilla luciferase miR-K12-4 exosomes)/(Firefly luciferase/Renilla luciferase miR-206 exosomes)×100. (n=4, p<0.05, paired t-test). Error bars represent standard error of the mean.
FIG. 8: Exosomes mediate transfer of miRNA activity in a BIG2-dependent manner. […] Activity of luciferases was measured after 8 hours (n=4, p=0.0287, t-test, a=0.05). […] GFP expression was measured by FACS analysis after 8 or 24 h (right). […]

BIG2 = molecular target: T1, BIG2 (Homo sapiens, UniProt Q9Y6D5); test: Exosome release after RNAi of BIG2 (protein in purified exosome pellets); type: cell-based
T1 construct: endogenous in cells; host or cells: Mono-Mac6 monocytic cells
Method: FIG. 5: Differential centrifugation enriches exosomes greatly. (A) Western blot of 50 μg of cell or exosome lysate with markers of exosomes (CD63, Tfr R, or Ub). (B) Cell counts and total protein quantitation of exosome pellets 36 h after transfection of cells with siRNA targeting BIG2 or control. (C) Electron microscopy of resuspended exosome pellets after uranyl acetate staining. (D) Dynamic light scattering analysis of purified exosome pellets resuspended in PBS (Phosphate buffered saline). Top graph represents five sets of measurements as size in nm (x-axis) as a function of relative number (y-axis) of particles detected. Bottom graph represents size in nm (x-axis) as a function of volume (y-axis). Measurements by volume exponentially amplify the representation of larger particles present.
FIG. 9: Purified exosomes are enriched in GW182, but not Dcp1a or Ge-1. (a) Equal amounts of proteins from exosomes and cells were analyzed by western blotting for exosome-enriched protein, CD63. Electron microscopy of resuspended exosome pellets. […] Error bars, SEM of five measurements. (c) RNAi of BIG2 reduces the recovery of proteins in exosome preparations (paired t-test, n=4, p=0.0194, a=0.05). […] (d) Equal amounts of proteins from exosomes and whole cells were analyzed by western blotting. […]

T1 sequence (Q9Y6D5 whole entry): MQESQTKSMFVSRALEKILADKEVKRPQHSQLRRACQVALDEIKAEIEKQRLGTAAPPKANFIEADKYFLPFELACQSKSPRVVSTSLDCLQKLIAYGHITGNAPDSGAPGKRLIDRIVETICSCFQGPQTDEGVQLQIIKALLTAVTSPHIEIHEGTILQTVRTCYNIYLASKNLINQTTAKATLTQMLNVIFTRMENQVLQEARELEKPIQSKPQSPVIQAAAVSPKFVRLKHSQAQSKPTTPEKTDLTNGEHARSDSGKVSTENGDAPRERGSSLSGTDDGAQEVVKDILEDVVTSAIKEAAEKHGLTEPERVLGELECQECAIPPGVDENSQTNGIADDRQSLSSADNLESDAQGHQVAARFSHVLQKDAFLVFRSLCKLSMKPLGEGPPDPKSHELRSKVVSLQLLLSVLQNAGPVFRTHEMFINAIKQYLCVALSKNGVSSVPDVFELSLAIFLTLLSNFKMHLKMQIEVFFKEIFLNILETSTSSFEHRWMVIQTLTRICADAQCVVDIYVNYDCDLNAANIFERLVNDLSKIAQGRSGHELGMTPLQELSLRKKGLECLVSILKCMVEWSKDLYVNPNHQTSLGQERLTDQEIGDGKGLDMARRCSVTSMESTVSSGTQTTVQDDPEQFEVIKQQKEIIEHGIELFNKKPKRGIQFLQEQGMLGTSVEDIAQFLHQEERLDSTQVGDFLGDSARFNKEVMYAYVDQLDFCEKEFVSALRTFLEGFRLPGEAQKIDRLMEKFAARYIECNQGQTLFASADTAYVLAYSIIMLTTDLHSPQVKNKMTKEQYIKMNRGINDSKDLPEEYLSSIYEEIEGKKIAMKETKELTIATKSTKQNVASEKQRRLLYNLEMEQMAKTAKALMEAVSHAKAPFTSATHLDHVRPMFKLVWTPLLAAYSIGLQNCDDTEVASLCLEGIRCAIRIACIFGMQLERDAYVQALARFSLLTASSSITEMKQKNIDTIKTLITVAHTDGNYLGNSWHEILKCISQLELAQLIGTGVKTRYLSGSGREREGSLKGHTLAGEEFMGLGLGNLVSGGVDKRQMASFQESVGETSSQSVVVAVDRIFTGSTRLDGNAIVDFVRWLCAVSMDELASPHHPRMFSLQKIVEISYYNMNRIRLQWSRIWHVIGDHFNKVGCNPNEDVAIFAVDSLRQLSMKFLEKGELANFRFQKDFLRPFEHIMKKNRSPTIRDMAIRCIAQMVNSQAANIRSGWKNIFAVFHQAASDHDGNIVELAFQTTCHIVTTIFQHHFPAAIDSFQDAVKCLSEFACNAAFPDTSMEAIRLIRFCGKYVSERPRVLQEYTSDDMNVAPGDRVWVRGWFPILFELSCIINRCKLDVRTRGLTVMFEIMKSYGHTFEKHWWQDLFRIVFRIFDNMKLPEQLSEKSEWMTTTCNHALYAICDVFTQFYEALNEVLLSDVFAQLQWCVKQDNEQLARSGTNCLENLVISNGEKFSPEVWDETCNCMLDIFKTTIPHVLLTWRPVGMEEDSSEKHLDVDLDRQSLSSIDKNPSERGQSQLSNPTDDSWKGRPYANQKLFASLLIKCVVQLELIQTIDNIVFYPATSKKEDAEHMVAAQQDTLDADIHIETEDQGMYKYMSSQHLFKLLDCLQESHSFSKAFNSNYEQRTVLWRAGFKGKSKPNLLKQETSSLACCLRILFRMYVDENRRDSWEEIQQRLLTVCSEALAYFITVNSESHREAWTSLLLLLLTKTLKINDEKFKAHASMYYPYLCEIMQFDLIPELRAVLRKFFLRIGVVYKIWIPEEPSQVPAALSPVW

BIG2 siRNA: siRNA targeting BIG2: CGAUGAAAUUAAAGCAGAA (SEQ ID NO. 11) (listed as RNA, chemistry not given here)
knockdown of miR-K12-4 reporter expression in target cells by exosomes [1]: inhibited knockdown | recovery of proteins in exosome preparations (BIG2; RNAi of BIG2 vs control, paired t-test n=4 p=0.0194): reduces | reduction of exosome release / vesicle yield (BIG2; siRNA targeting BIG2 vs control siRNA, monocytic cells, transfection efficiency ~50%): ~50%
